Test results reported in ChEMBL document CHEMBL1201862, “PubChem BioAssay data set” (2004).
The source made the active and inactive calls.

Tests used:
[1] = target: Heat shock 70 kDa protein 1A (Homo sapiens, UniProt P0DMV8); assay: inhibition of Hsp70 binding activity – biochemical, fluorescence polarization, SAR follow-up (AID 1072)
[2] = target: Heat shock cognate 71 kDa protein (Homo sapiens, UniProt P11142); assay: In Vitro Hsc70 Dose Response Fluorescence Polarization Assay. [Related pubchem assays: 1072 ]
[3] = target: T1, Dual specificity protein phosphatase 6 (Rattus norvegicus, UniProt Q64346); type: functional
T1 sequence (Q64346 whole entry): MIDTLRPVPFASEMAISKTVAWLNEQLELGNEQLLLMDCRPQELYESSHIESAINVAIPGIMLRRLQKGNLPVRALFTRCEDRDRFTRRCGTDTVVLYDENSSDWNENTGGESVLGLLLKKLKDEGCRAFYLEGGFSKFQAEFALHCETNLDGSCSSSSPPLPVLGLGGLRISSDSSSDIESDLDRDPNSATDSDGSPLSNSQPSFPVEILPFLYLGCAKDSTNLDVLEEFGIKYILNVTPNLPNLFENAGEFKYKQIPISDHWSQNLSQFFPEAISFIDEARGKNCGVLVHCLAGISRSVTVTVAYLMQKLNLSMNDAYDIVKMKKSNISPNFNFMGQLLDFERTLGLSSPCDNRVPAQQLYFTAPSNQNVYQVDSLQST

[4] = target: T1, Dual specificity protein phosphatase 6
[5] = target: T2, Tyrosine-protein phosphatase non-receptor type 7 (Homo sapiens, UniProt P35236); type: functional
T2 sequence (P35236 whole entry): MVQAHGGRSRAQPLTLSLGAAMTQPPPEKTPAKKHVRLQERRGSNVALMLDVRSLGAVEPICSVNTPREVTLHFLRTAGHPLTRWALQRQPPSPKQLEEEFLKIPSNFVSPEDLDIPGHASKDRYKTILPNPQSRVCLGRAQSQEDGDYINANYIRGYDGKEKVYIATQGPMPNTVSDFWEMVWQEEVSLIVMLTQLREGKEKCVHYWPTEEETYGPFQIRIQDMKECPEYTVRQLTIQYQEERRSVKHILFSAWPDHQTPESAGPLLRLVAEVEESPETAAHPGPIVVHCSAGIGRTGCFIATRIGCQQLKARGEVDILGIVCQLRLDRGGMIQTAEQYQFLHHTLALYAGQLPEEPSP

[6] = target: Glyceraldehyde-3-phosphate dehydrogenase (Homo sapiens, UniProt P04406)
[7] = target: Luciferin 4-monooxygenase (Photinus pyralis, UniProt P08659); assay: Counter Screen for Luciferase-based Assay Positives. [Related pubchem assays: 620, 618, 411 ]
HT-1080 = assay: HT1080 cell viability loss – fluorescence readout (AID 620); type: functional, cell-based; settings: Homo sapiens
[8] = target: Mitogen-activated protein kinase 10 (Homo sapiens, UniProt P53779); assay: Dose response biochemical screening assay for inhibitors of c-Jun N-Terminal Kinase 3 (JNK3). [Related pubchem assays: 746 ]
[9] = target: T3, Neuropeptide Y receptor type 2 (Homo sapiens, UniProt P49146); type: functional, cell-based;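 note: HEK293 cells expressing the receptor and a CNG channel; stimulus was NPY near EC95 followed by isoproterenol to raise cAMP; antagonist potency measured as restoring cAMP signal that NPY suppresses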
T3 sequence (P49146 whole entry): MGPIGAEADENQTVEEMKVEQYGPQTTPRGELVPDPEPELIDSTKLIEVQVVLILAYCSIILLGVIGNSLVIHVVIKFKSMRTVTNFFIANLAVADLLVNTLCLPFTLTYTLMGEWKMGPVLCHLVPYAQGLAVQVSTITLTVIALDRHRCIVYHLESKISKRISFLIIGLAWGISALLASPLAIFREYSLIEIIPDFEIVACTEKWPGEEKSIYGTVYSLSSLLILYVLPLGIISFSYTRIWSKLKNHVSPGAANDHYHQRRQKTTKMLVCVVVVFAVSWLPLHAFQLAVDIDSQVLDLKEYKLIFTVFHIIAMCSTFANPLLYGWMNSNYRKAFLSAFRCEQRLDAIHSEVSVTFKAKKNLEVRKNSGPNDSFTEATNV

[10] = target: T4, Neuropeptide Y receptor type 1 (Homo sapiens, UniProt P25929); type: functional;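 note: HEK293 cells with a CNG channel challenged with NPY then isoproterenol; potency as antagonist that reverses NPY suppression of cAMP signal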
T4 sequence (P25929 whole entry): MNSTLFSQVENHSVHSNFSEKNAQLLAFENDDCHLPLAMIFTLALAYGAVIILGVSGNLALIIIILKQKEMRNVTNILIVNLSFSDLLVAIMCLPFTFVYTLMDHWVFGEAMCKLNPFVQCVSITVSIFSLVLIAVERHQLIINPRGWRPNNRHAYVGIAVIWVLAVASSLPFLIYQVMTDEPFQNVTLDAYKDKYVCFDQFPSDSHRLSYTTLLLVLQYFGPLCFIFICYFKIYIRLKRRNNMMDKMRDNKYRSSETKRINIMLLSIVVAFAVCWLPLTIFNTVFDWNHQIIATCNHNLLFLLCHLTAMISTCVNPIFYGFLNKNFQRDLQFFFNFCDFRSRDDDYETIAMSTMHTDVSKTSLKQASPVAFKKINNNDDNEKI

[11] = target: T5, Alkaline phosphatase, tissue-nonspecific isozyme (Homo sapiens, UniProt P05186)
T5 sequence (P05186 whole entry): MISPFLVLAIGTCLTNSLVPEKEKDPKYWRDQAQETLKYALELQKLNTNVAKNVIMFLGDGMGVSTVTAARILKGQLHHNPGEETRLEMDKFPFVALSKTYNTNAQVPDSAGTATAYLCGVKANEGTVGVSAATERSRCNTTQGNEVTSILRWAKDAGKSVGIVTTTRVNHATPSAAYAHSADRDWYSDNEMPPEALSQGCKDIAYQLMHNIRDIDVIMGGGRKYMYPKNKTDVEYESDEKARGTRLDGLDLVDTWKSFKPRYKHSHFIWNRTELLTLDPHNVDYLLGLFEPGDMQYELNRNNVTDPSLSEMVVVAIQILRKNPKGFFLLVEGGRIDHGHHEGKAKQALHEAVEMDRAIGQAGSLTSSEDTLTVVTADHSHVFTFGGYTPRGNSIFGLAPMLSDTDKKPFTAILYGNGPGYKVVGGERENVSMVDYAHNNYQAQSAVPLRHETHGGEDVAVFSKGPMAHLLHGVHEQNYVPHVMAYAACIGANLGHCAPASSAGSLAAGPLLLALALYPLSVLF

[12] = target: T6, Ubiquitin-conjugating enzyme E2 N (Homo sapiens, UniProt P61088); type: functional;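 note: Dose-response confirmation in a TR-FRET assay detecting UBC13-driven polyubiquitin chain formation, inhibition measured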
T6 sequence (P61088 whole entry): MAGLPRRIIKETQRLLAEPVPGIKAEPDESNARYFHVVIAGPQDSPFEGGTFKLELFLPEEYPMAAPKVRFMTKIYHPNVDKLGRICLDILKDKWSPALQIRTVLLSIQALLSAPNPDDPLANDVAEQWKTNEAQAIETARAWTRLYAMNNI

Vero = assay: inhibition of WNV-induced cytopathic effect – cell-based, CPE readout (AID 1621); type: functional; settings: Chlorocebus sabaeus
NS3 = NS3 (Hepatitis C virus, UniProt A3EZJ3); assay: PubChem AID 2173; set-up: species or system Hepacivirus hominis
[13] = target: Protein-tyrosine kinase 2-beta (Homo sapiens, UniProt Q14289);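 note: potency of inhibitors of PYK2 kinase phosphorylation of poly-GT substrate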
[14] = viability of PTEN-deleted HCT116 cells – cell-based, HCT116 PTEN knockout, dose response (AID 1047); type: functional;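 note: HCT116 colon tumor cells with PTEN knocked out; cells exposed to compound for 60 hours before readout; potency for loss of cell viability measured by luminescence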
[15] = viability of HCT116 lacking mutant beta-catenin – cell-based, human colon tumor, dose response (AID 1045); type: functional;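 note: HCT116 colon tumor cells with beta catenin knocked out; cells exposed to compound for 60 hours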
[16] = target: Heat shock protein HSP 90-alpha (Homo sapiens, UniProt P07900); type: functional, organism-based
[17] = target: Photoreceptor-specific nuclear receptor (Homo sapiens, UniProt Q9Y5X4); type: functional;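 note: potency for compounds that break the NR2E3 corepressor complex and count as activators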
[18] = target: Peroxisome proliferator-activated receptor gamma/Nuclear receptor corepressor 2 (Homo sapiens, UniProt P37231+Q9Y618); type: functional
[19] = target: G-protein coupled receptor 55 (Homo sapiens, UniProt Q9Y2T6); assay: selective activators of receptor GPR55 – imaging, U2OS cells, beta-arrestin-GFP redistribution, primary screen (AID 1961); type: functional
[20] = antiviral protection against BTV-induced cell death – arbovirus, BSR cells, confirmation (AID 1250); type: functional;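 note: protection from viral cytopathic effect measured as cell viability by ATP luminescence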
[21] = A Cell Based Secondary Assay To Explore Cytotoxicity of Compounds that Sensitize Mycobacterium Tuberculosis to Beta-Lactam Antibiotics.; type: functional
[22] = target: Melanin-concentrating hormone receptor 1 (Homo sapiens, UniProt Q99705); assay: Fluorescence-based counterscreen for antagonists of the G-protein coupled receptor 7 (GPR7): cell-based high throughput dose response assay to identify antagonists of the melanin-concentrating hormone receptor 1 (MCHR1).; type: functional
[23] = target: T5, Alkaline phosphatase, tissue-nonspecific isozyme; assay: potency against alkaline phosphatase TNAP – biochemical, luminescent, dose response, SAR follow-up (AID 1056)
[24] = target: Peroxisome proliferator-activated receptor gamma/Nuclear receptor coactivator 1 (Homo sapiens, UniProt P37231); type: functional;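 note: agonist potency as compounds enhance coactivator SRC-1 recruitment to PPARgamma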
[25] = target: Peroxisome proliferator-activated receptor gamma/Nuclear receptor coactivator 2 (Homo sapiens, UniProt P37231); type: functional;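 note: agonist potency for raising coactivator recruitment to the receptor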
[26] = target: Peroxisome proliferator-activated receptor gamma/Nuclear receptor coactivator 3 (Homo sapiens, UniProt P37231); type: functional;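 note: agonist potency for raising coactivator recruitment to the receptor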

Sequence of Mitogen-activated protein kinase 10 (P53779 whole entry): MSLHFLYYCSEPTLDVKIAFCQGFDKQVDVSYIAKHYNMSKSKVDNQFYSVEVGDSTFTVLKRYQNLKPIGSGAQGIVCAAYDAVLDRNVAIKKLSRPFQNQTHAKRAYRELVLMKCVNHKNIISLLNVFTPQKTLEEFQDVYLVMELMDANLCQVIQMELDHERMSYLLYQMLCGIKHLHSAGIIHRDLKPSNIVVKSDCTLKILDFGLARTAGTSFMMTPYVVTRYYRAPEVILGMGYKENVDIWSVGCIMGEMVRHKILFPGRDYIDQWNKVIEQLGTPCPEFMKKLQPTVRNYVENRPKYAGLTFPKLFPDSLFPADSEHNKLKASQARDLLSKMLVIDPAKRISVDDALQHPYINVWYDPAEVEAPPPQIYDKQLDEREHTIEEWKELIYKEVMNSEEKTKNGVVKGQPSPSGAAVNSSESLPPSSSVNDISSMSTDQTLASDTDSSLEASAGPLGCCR
Sequence of Luciferin 4-monooxygenase (P08659 whole entry): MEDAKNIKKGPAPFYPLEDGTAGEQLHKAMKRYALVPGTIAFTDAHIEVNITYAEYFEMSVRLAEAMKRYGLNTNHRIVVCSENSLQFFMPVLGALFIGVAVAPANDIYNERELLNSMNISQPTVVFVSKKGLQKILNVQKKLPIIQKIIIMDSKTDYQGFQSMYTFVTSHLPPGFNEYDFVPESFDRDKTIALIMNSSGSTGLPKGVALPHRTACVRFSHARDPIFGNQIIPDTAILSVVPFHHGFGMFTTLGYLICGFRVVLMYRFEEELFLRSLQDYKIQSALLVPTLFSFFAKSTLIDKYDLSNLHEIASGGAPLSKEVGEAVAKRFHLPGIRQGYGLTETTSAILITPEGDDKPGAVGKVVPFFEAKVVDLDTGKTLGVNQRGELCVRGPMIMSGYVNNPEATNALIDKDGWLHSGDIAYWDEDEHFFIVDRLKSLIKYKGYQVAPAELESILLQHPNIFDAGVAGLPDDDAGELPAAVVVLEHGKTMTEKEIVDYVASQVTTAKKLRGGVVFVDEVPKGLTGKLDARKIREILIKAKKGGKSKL
Sequence of Heat shock 70 kDa protein 1A (P0DMV8 whole entry): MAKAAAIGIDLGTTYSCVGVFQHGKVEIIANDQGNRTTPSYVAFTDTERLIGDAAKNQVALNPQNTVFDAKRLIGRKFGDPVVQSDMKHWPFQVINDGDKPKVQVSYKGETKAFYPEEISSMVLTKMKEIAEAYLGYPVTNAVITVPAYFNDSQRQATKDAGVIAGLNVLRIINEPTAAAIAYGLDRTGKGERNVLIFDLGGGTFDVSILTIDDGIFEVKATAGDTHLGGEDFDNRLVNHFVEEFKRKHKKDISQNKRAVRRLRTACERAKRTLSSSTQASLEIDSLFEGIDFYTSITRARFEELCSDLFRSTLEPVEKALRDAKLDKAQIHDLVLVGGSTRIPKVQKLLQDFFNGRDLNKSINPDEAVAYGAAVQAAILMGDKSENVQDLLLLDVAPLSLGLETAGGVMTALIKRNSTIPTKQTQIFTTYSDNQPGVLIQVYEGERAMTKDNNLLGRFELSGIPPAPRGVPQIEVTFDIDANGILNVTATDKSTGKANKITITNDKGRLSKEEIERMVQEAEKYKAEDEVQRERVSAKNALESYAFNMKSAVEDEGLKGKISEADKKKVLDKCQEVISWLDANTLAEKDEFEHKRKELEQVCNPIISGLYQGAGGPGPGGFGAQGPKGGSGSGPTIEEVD
Sequence of Glyceraldehyde-3-phosphate dehydrogenase (P04406 whole entry): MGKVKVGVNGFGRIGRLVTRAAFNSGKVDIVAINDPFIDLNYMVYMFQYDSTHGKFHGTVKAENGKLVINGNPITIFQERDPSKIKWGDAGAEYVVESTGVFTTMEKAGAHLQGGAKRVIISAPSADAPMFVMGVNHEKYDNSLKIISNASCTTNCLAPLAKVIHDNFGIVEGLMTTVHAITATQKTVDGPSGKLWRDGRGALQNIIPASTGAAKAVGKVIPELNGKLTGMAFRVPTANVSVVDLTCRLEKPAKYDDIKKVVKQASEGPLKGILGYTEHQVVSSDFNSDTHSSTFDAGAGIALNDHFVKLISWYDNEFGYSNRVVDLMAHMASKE
Sequence of NS3 (A3EZJ3 whole entry): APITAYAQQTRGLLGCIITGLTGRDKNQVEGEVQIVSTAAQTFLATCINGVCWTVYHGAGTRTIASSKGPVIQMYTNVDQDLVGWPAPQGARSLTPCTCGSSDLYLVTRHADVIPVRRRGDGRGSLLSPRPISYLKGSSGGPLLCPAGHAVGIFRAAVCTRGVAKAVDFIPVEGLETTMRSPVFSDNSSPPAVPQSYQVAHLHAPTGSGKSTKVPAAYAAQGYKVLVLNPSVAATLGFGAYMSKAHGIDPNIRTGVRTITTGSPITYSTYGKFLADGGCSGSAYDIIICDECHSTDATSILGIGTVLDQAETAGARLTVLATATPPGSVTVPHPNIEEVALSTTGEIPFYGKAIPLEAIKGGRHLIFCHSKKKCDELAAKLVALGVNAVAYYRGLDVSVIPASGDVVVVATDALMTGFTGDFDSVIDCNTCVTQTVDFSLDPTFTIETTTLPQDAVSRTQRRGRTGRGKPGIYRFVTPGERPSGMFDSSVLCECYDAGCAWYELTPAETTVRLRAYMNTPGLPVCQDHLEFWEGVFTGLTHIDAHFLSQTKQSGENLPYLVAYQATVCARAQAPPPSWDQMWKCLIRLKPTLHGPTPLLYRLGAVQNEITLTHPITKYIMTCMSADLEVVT
Sequence of Heat shock cognate 71 kDa protein (P11142 whole entry): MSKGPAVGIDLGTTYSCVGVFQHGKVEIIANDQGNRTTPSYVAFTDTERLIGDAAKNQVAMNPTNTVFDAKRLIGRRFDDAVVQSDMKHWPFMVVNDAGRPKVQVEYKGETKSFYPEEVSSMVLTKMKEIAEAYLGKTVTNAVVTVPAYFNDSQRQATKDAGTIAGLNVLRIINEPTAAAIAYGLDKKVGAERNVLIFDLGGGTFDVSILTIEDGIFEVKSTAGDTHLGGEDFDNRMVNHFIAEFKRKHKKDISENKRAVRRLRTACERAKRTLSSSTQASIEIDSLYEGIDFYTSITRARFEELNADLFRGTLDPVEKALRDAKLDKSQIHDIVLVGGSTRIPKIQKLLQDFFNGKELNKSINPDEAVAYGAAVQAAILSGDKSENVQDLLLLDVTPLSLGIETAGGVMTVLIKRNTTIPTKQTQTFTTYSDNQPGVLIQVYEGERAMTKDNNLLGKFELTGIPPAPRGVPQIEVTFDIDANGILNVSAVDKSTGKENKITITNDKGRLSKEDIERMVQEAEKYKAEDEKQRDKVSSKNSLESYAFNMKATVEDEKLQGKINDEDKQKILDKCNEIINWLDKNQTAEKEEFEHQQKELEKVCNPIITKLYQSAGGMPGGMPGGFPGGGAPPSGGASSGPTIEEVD
Sequence of Protein-tyrosine kinase 2-beta (Q14289 whole entry): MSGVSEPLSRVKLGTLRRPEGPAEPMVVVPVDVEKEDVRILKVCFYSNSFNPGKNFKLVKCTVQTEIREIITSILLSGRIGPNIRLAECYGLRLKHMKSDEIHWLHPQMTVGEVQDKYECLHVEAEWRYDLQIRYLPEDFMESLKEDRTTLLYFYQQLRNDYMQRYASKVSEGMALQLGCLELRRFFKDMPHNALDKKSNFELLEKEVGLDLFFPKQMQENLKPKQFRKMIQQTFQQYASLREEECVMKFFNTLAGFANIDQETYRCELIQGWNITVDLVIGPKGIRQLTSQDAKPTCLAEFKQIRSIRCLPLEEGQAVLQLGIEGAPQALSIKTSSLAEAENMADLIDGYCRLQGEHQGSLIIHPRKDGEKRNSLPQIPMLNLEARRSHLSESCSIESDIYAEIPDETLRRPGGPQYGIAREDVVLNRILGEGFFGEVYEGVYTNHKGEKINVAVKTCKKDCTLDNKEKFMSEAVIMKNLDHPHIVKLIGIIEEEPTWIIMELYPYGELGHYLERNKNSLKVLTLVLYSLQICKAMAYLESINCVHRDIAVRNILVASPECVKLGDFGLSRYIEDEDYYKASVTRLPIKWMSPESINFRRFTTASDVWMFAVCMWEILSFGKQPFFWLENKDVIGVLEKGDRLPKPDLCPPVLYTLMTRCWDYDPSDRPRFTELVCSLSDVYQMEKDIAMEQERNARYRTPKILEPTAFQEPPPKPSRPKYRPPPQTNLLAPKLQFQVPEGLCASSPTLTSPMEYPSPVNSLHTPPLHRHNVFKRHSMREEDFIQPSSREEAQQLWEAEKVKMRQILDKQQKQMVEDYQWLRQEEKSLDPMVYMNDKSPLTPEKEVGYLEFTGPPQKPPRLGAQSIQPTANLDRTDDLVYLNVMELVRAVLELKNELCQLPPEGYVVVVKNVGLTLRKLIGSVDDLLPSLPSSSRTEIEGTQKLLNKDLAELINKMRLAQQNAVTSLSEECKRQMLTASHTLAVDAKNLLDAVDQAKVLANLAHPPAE
Sequence of G-protein coupled receptor 55 (Q9Y2T6 whole entry): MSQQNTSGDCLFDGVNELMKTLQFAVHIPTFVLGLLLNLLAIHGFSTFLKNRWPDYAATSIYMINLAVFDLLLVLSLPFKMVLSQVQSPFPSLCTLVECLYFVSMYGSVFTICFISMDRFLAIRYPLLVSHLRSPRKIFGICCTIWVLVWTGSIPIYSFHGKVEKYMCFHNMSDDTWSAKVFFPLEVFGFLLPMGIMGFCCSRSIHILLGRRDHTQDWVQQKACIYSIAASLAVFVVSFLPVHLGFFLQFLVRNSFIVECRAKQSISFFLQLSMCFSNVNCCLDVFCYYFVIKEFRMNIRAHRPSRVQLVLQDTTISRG
Sequence of Photoreceptor-specific nuclear receptor (Q9Y5X4 whole entry): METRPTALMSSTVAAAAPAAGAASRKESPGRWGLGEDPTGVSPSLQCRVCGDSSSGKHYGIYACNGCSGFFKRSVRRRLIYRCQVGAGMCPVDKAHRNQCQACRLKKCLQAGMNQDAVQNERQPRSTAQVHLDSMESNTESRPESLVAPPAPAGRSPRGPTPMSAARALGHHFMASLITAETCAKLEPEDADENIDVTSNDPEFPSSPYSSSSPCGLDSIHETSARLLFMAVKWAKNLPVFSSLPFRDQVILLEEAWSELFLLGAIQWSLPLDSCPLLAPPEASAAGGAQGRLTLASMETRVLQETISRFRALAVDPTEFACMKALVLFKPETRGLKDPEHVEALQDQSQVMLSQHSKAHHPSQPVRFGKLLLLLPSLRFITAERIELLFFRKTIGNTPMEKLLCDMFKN

O=C(O)C(O)c1ccccc1 (stereo not given) [MANDELIC ACID]
IC50 [1]: > 100 µM (not active) | IC50 [2]: > 100 µM (not active) | IC50 [3]: > 100 µM (inactive) | IC50 [4]: > 100 µM (inactive) | IC50 [5]: > 100 µM (not active) | IC50 [6]: > 100 µM (not active)

CN(C(=O)c1ccco1)c1nc2c(s1)CCCC2
EC50 [7]: > 100 µM (not active) | EC50 (HT-1080): > 50 µM (not active)

COc1ccc(/C=N/n2c(N)nc3ccccc32)cc1OC
IC50 [8]: 16.6 µM (not active)

Cc1cccc(CSC2=NCCN2C(=O)c2ccc(Br)o2)c1
IC50 [9]: 12.8 µM (not active) | IC50 [10]: < 12 µM (not active)

Cc1ccc(Cl)cc1-n1ncc2c(NNC(=O)c3ccco3)ncnc21
EC50 [11]: 63.2 µM (not active)

CCN(CC)CCC(c1cc(OC)c(OC)c(OC)c1)c1c(OC)cc(OC)c2c(-c3ccccc3)cc(=O)oc12 (stereo not given)
IC50 [12]: > 20 µM (inactive) | IC50 (Vero): 30.8 µM (active)

CC1(C)Cc2c(C#N)c(NCCc3ccccc3)nc(-c3ccco3)c2CO1
IC50 (NS3): 35.3 µM (not active)

CN1CCc2nc3sc(C(=O)C45CC6CC(CC(C6)C4)C5)c(N)c3cc2C1
IC50 [13]: 13.8 µM (not active) | EC50 [14]: 20.5 µM (active) | EC50 [15]: 27.4 µM (active) | AC50 [16]: 1.82 µM (active)

O=C1C(/C=N/Cc2cccnc2)=C(O)c2ccccc21
IC50 [8]: 32.1 µM (not active)

Cn1c(=O)c2c(nc(N/N=C/c3ccc(OC(=O)c4ccco4)cc3)n2Cc2ccccc2)n(C)c1=O
EC50 [11]: > 100 µM (not active)

CCN(CC)CCN1C(=O)C(O)=C(C(=O)c2cc3ccccc3o2)C1c1cccnc1 (stereo not given)
IC50 [17]: > 39.8 µM (not active) | IC50 [18]: 2.95 µM (active)

COc1ccccc1-c1cc(C(=O)N2CCc3ccccc3C2)c2ccccc2n1
EC50 [19]: 3.06 µM (active) | IC50 [20]: 28.8 µM (active)

CCOc1ccc(NC(=O)c2c(NC(=O)CN3CCN(C)CC3)sc3c2CCC3)cc1
IC50 (Vero): 18.3 µM (active)

CCCCCOc1ccc(/C=c2\sc3nc(=O)c(-c4ccccc4)nn3c2=O)cc1OC
IC50 (NS3): > 36.3 µM (not active)

O=C1NC(=S)NC(=O)C1=NNc1ccc2c(c1)OCCO2
CC50 [21]: > 40 µM (active)

CCCCCC(=O)NC(=S)Nc1ccc(Br)cc1C
IC50 [9]: 6.11 µM (active) | IC50 [10]: 7.66 µM (active)

Cc1ccccc1OCC(=O)N/N=C/c1cccc(Oc2ccc([N+](=O)[O-])cc2[N+](=O)[O-])c1
CC50 [21]: 33.9 µM (active)

O=C(c1ccc(Cl)c(S(=O)(=O)N2CCCCCC2)c1)N1CCCCC1
IC50 [22]: 32.7 µM (not active)

COc1ccc(C(=O)Nn2c(SCC(=O)N3CCC(C)CC3)nc3ccccc3c2=O)cc1
EC50 [7]: < 0.2 µM (active) | EC50 (HT-1080): > 50 µM (not active)

O=C(CSc1nnc[nH]1)NCCOc1ccccc1
IC50 [1]: > 100 µM (not active) | IC50 [23]: 28.8 µM (active) | IC50 [2]: > 100 µM (not active) | IC50 [6]: > 100 µM (not active)

Cc1cc(/C=C2/NC(=O)N(Cc3ccccc3F)C2=O)c(C)n1C
EC50 [24]: > 79.4 µM (not active) | EC50 [25]: > 79.4 µM (not active) | EC50 [26]: > 79.4 µM (not active)

CCOC(=O)CS(=O)(=O)c1ccc(O)cc1
EC50 [24]: > 79.4 µM (not active) | EC50 [25]: > 79.4 µM (not active) | EC50 [26]: > 79.4 µM (not active)

O=C(Nc1sc2c(c1C(=O)O)CCCCC2)c1ccccc1
IC50 [20]: 28.4 µM (active)
